Measured values reported in the NIST ThermoML archive (doi:10.1021/je700140j).

Test: xn = mol fraction of the nth substance listed
Conditions: for surface tension liquid-gas: Ring tensiometer; for mass density / viscosity: 100.8 kPa, Liquid

OCCc1ccccc1 [2-phenylethanol] + OCc1ccccc1
Conditions | mass density, 298.15 K [kg/m3] | mass density, 308.15 K [kg/m3] | mass density, 318.15 K [kg/m3] | surface tension liquid-gas, 298.15 K [mN/m] | surface tension liquid-gas, 308.15 K [mN/m] | surface tension liquid-gas, 318.15 K [mN/m] | viscosity, 298.15 K [mPa·s] | viscosity, 308.15 K [mPa·s] | viscosity, 318.15 K [mPa·s]
x2 = 0 | 1016.2 | 1008.63 | 1000.98 | 39.43 | 38.93 | 38.35 | 11.4 | 7.518 | 5.232
x2 = 0.05 | 1018.11 | 1010.83 | 1003.42 | – | – | – | 11.07 | 7.322 | 5.116
x2 = 0.1 | 1020.14 | 1013.11 | 1005.98 | 39.2 | 38.7 | 38.11 | 10.73 | 7.132 | 5
x2 = 0.15 | 1022.33 | 1015.32 | 1008.23 | – | – | – | 10.41 | 6.94 | 4.883
x2 = 0.2 | 1024.45 | 1017.42 | 1010.36 | 39 | 38.48 | 37.86 | 10.08 | 6.752 | 4.77
x2 = 0.25 | 1026.56 | 1019.52 | 1012.41 | – | – | – | 9.759 | 6.564 | 4.655
x2 = 0.3 | 1028.52 | 1021.44 | 1014.25 | 38.83 | 38.28 | 37.63 | 9.44 | 6.372 | 4.542
x2 = 0.35 | 1030.34 | 1023.25 | 1015.99 | – | – | – | 9.125 | 6.186 | 4.43
x2 = 0.4 | 1032.11 | 1024.95 | 1017.65 | 38.7 | 38.1 | 37.41 | 8.816 | 5.999 | 4.32
x2 = 0.45 | 1033.8 | 1026.61 | 1019.28 | – | – | – | 8.506 | 5.815 | 4.21
x2 = 0.5 | 1035.25 | 1028.06 | 1020.74 | 38.6 | 37.95 | 37.21 | 8.203 | 5.636 | 4.101
x2 = 0.55 | 1036.33 | 1029.16 | 1021.87 | – | – | – | 7.913 | 5.467 | 3.997
x2 = 0.6 | 1037.32 | 1030.12 | 1022.84 | 38.6 | 37.9 | 37.12 | 7.628 | 5.302 | 3.897
x2 = 0.65 | 1038.01 | 1030.89 | 1023.63 | – | – | – | 7.351 | 5.14 | 3.797
x2 = 0.7 | 1038.62 | 1031.56 | 1024.26 | 38.6 | 37.85 | 37.02 | 7.081 | 4.979 | 3.697
x2 = 0.75 | 1039.06 | 1031.9 | 1024.63 | – | – | – | 6.813 | 4.821 | 3.599
x2 = 0.8 | 1039.43 | 1032.23 | 1024.86 | 38.6 | 37.8 | 36.92 | 6.554 | 4.666 | 3.5
x2 = 0.85 | 1039.72 | 1032.44 | 1024.99 | – | – | – | 6.296 | 4.519 | 3.402
x2 = 0.9 | 1040 | 1032.65 | 1025.18 | 38.6 | 37.76 | 36.84 | 6.036 | 4.374 | 3.306
x2 = 0.95 | 1040.59 | 1033.06 | 1025.43 | – | – | – | 5.787 | 4.232 | 3.213

OCc1ccccc1 [benzenemethanol] + CC(C)O
Conditions | mass density, 298.15 K [kg/m3] | mass density, 308.15 K [kg/m3] | mass density, 318.15 K [kg/m3] | surface tension liquid-gas, 298.15 K [mN/m] | surface tension liquid-gas, 308.15 K [mN/m] | surface tension liquid-gas, 318.15 K [mN/m] | viscosity, 298.15 K [mPa·s] | viscosity, 308.15 K [mPa·s] | viscosity, 318.15 K [mPa·s]
x2 = 0 | 1041.4 | 1033.6 | 1025.72 | 38.63 | 37.73 | 36.75 | 5.555 | 4.093 | 3.12
x2 = 0.05 | 1032.82 | 1025.02 | 1017.09 | 37.5 | 36.66 | 35.75 | 5.299 | 3.91 | 2.989
x2 = 0.1 | 1023.74 | 1015.91 | 1007.96 | 36.4 | 35.63 | 34.76 | 5.053 | 3.73 | 2.864
x2 = 0.15 | 1014.27 | 1006.4 | 998.38 | 35.35 | 34.6 | 33.77 | 4.799 | 3.558 | 2.745
x2 = 0.2 | 1004.39 | 996.5 | 988.43 | 34.3 | 33.59 | 32.78 | 4.559 | 3.389 | 2.628
x2 = 0.25 | 994.22 | 986.26 | 978.11 | 33.27 | 32.58 | 31.81 | 4.332 | 3.23 | 2.513
x2 = 0.3 | 983.63 | 975.59 | 967.39 | 32.27 | 31.58 | 30.83 | 4.116 | 3.076 | 2.4
x2 = 0.35 | 972.64 | 964.56 | 956.29 | 31.27 | 30.58 | 29.85 | 3.911 | 2.921 | 2.285
x2 = 0.4 | 961.2 | 953.08 | 944.75 | 30.3 | 29.6 | 28.9 | 3.714 | 2.772 | 2.172
x2 = 0.45 | 949.36 | 941.19 | 932.79 | 29.36 | 28.66 | 27.95 | 3.523 | 2.631 | 2.059
x2 = 0.5 | 937.02 | 928.79 | 920.32 | 28.45 | 27.75 | 27.05 | 3.335 | 2.49 | 1.953
x2 = 0.55 | 924.21 | 915.93 | 907.36 | 27.63 | 26.93 | 26.25 | 3.169 | 2.37 | 1.858
x2 = 0.6 | 910.83 | 902.49 | 893.86 | 26.83 | 26.15 | 25.48 | 3.01 | 2.256 | 1.769
x2 = 0.65 | 896.91 | 888.53 | 879.84 | 26.05 | 25.38 | 24.73 | 2.858 | 2.145 | 1.68
x2 = 0.7 | 882.44 | 874.02 | 865.32 | 25.28 | 24.61 | 23.98 | 2.715 | 2.042 | 1.594
x2 = 0.75 | 867.32 | 858.91 | 850.19 | 24.53 | 23.85 | 23.23 | 2.58 | 1.946 | 1.511
x2 = 0.8 | 851.54 | 843.1 | 834.29 | 23.78 | 23.1 | 22.48 | 2.46 | 1.851 | 1.434
x2 = 0.85 | 835.11 | 826.58 | 817.75 | 23.05 | 22.35 | 21.73 | 2.346 | 1.761 | 1.359
x2 = 0.9 | 817.95 | 809.39 | 800.5 | 22.33 | 21.6 | 20.96 | 2.251 | 1.675 | 1.295
x2 = 0.95 | 800 | 791.45 | 782.46 | 21.61 | 20.85 | 20.19 | 2.148 | 1.602 | 1.228
